The values below come from patent US8017611B2, “Pyridine and pyrazine derivatives -083” (AstraZeneca AB, priority 2007, dated 2011).

For assay [1], the target named is T1, Axl expressed on NCI H1299 lung large cell carcinoma cells (Homo sapiens, UniProt P30530).
T1 sequence (P30530 26-894): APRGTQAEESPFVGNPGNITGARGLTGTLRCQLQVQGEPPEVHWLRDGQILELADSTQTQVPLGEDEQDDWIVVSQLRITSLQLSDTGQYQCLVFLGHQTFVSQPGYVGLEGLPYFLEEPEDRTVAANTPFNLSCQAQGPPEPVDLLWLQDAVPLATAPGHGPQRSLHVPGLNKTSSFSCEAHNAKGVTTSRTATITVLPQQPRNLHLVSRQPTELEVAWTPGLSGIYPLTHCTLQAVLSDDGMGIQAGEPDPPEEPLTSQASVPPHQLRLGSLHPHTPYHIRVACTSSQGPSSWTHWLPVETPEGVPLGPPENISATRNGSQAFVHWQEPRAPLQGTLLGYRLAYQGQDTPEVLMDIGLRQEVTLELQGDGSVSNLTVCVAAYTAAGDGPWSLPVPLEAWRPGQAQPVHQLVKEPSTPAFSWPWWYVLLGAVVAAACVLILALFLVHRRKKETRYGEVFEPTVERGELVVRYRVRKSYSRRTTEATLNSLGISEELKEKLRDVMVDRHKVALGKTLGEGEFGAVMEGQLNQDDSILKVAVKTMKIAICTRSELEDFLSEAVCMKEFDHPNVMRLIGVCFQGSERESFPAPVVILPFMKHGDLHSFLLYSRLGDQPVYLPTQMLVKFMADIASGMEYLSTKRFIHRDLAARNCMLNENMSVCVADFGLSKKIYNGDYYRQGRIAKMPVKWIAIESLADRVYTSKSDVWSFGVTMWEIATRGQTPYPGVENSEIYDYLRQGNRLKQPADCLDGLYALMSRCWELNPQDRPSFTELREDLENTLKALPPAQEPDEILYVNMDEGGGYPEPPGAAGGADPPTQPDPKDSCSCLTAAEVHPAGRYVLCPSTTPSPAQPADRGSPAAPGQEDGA
Description: Cellular phospho-Axl ELISA assay, Test (b). In general terms: An ELISA detects its analyte on a solid surface through an enzyme-linked reagent.
Description: This assay uses a conventional ELISA method to determine the ability of test compounds to inhibit phosphorylation of tyrosine residues in Axl.
100 μl Aliquots were seeded into each of the wells of a clear 96 well tissue culture plate and the plates were incubated overnight at 37° C. with 5% CO2 to allow the cells to adhere to the wells.
Aliquots of each compound concentration were added to the cells in each well using the Echo 550 (Labcyte Inc., Sunnyvale, Calif., US). Control cells received DMSO only. The cells were incubated for 2 hours at 37° C. with 5% CO2.
The resultant tissue culture plates were incubated on ice for 30 minutes to ensure full lysis.
The wells were washed 3 times with 250 μl per well of PBS containing 0.05% v/v Tween (PBS/T). The wells were treated with 3% w/v BSA in PBS at ambient temperature for 2 hours and subsequently washed 3 times with 250 μl per well of PBS/T.
50 μl Aliquots of the NCI H1299 cell lysates were added to the ELISA plates.
100 μl Aliquots of substrate solution were added to each of the wells and fluorescence was read on a Tecan Ultra plate reader (Tecan UK Ltd., Reading, Berkshire, UK).

For assay [2], the target named is T2, recombinant Axl tyrosine kinase (Homo sapiens, UniProt P30530).
T2 construct: encompassing amino acids 473 to 894 of Axl; GST (N); made in house; host or cells: SF126 insect cells
T2 sequence (P30530 473-894): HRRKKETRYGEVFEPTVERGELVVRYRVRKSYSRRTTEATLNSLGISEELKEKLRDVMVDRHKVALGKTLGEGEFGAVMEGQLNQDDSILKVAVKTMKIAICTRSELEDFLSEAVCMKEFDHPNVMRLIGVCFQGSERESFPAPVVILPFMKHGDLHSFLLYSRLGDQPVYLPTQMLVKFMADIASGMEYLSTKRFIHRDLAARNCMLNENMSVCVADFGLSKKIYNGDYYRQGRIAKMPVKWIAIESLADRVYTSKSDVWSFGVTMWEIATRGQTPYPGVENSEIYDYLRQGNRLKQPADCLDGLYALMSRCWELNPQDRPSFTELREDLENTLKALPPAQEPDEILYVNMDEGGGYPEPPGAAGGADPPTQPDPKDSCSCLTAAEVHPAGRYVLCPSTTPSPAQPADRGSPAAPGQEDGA
Put plainly: In vitro Axl kinase assay (AlphaScreen), Test (a). The following applies: for % Axl tyrosine kinase inhibition at 1 μM concentration / inhibition at 1 µM: test compound at 1 μM, first value quoted; for inhibition at 1 µM: read-out: % Axl tyrosine kinase inhibition at 1 μM concentration; for IC50: Test (a), read-out: IC50 versus Axl tyrosine kinase. The class given is biochemical. For orientation: In Alpha technology, singlet oxygen from a donor bead excites a nearby acceptor bead.

The mark [3] stands for this setting: read-out: IC50 versus cellular phospho-Axl, Test (b), footnotes of Table A.
[4] abbreviates: read-out: IC50 versus cellular phospho-Axl, Test (b), NCI H1299 cells stimulated with GAS6.

Like-named read-outs stand apart in the source and are kept apart here.

Take `Nc1ncc(-c2ccc(C3CCNCC3)cc2)cc1-c1nc2ccccc2o1` [Example 2.18]: in assay [1] (setting [3]), the IC50 was approximately 70 nM. The “% Axl tyrosine kinase inhibition at 1 μM concentration” value (from here on “% Axl tyrosine kinase inhibition”) in assay [2] is recorded as “^#99.8%”.
Turning to `Nc1ncc(-c2cnn(C3CCNCC3)c2)cc1-c1nc2ccccc2s1` [Example 14, 3-(1,3-Benzothiazol-2-yl)-5-[1-(4-piperidyl)pyrazol-4-yl]pyridin-2-amine], in assay [1], the half-maximal inhibitory concentration (IC50) was approximately 101 nM. Moreover, the inhibition at 1 µM in assay [2] amounted to 99.9%.
For the compound `COCc1nn(C2CCN(C)CC2)cc1-c1cnc(N)c(-c2nc3ccccc3o2)c1` [Example 41.26], in assay [1] (setting [4]), the IC50 was approximately 3 nM. Further, in assay [2], the IC50 was approximately 0.3 nM and the “% Axl tyrosine kinase inhibition” value is 100.0%.
As for `CN1CCC(n2cc(-c3cnc(N)c(-c4nc5ncc(F)cc5o4)c3)cn2)CC1` [Example 41.7], the 50% inhibitory concentration (IC50) in assay [1] (setting [3]) was approximately 234 nM.
`Cc1nn(C2CCNCC2)cc1-c1cnc(N)c(-c2nc3ccccc3o2)c1` [Example 22, 3-(1,3-benzoxazol-2-yl)-5-[3-methyl-1-(4-piperidyl)pyrazol-4-yl]pyridin-2-amine] gave an IC50 in assay [1] of approximately 16 nM. In addition, in assay [2], the IC50 is approximately 0.4 nM and the inhibition at 1 µM was determined as 100%.
On to `CN1CCC(n2cc(-c3cnc(N)c(-c4nc5ccccc5o4)c3)c(CO)n2)CC1` [Example 41.19], for which, in assay [1] (setting [4]), the 50% inhibitory concentration (IC50) is approximately 7 nM. Also, in assay [2], the IC50 is approximately 0.8 nM and the “% Axl tyrosine kinase inhibition” value was 100.0%.
On to `CN(C)C(=O)CN1CCC(n2cc(-c3cnc(N)c(-c4nc5ccccc5o4)c3)c(CO)n2)CC1` [Example 69, 2-[4-[4-[6-amino-5-(1,3-benzoxazol-2-yl)-3-pyridyl]-3-(hydroxymethyl)pyrazol-1-yl]-1-piperidyl]-N,N-dimethyl-acetamide], for which, in assay [2], the inhibition at 1 µM came out at 100%.

What is called IC50 is the concentration that inhibits the measured activity by half.
